Oligonucleotides are given in HELM: sugar(base)linkage, 5' to 3'; d 2'-deoxyribose, r ribose, m 2'-O-methylribose, p phosphate. ss, as = sense and antisense strand
Each substance was assayed against UBE2N (assay: reporter assay of Huesken 2005). Settings: siRNA.
Further: test concentration or dose not given here.

Point of comparison: “RNA1{r(C)p.r(A)p.r(U)p.r(U)p.r(A)p.r(G)p.r(C)p.r(A)p.r(A)p.r(A)p.r(U)p.r(G)p.r(A)p.r(U)p.r(G)p.r(U)p.r(A)p.r(G)p.r(C)p.d(T)p.d(T)}|RNA2{r(G)p.r(C)p.r(U)p.r(A)p.r(C)p.r(A)p.r(U)p.r(C)p.r(A)p.r(U)p.r(U)p.r(U)p.r(G)p.r(C)p.r(U)p.r(A)p.r(A)p.r(U)p.r(G)p.d(G)p.d(A)}$$$RNA1{StrandType:ss}|RNA2{StrandType:as}$”, normalised inhibition (eCFP-eYFP dual reporter) 30.2%. Against it:
- RNA1{r(C)p.r(A)p.r(U)p.r(C)p.r(A)p.r(A)p.r(A)p.r(G)p.r(C)p.r(C)p.r(G)p.r(A)p.r(A)p.r(C)p.r(C)p.r(A)p.r(G)p.r(A)p.r(U)p.d(T)p.d(T)}|RNA2{r(A)p.r(U)p.r(C)p.r(U)p.r(G)p.r(G)p.r(U)p.r(U)p.r(C)p.r(G)p.r(G)p.r(C)p.r(U)p.r(U)p.r(U)p.r(G)p.r(A)p.r(U)p.r(G)p.d(C)p.d(C)}$$$RNA1{StrandType:ss}|RNA2{StrandType:as}$ — higher, 84.7%
- RNA1{r(C)p.r(C)p.r(A)p.r(G)p.r(A)p.r(U)p.r(G)p.r(A)p.r(G)p.r(A)p.r(G)p.r(C)p.r(A)p.r(A)p.r(C)p.r(G)p.r(C)p.r(C)p.r(C)p.d(T)p.d(T)}|RNA2{r(G)p.r(G)p.r(G)p.r(C)p.r(G)p.r(U)p.r(U)p.r(G)p.r(C)p.r(U)p.r(C)p.r(U)p.r(C)p.r(A)p.r(U)p.r(C)p.r(U)p.r(G)p.r(G)p.d(T)p.d(T)}$$$RNA1{StrandType:ss}|RNA2{StrandType:as}$ — higher, 65.8%
- RNA1{r(C)p.r(C)p.r(A)p.r(U)p.r(U)p.r(A)p.r(G)p.r(C)p.r(A)p.r(A)p.r(A)p.r(U)p.r(G)p.r(A)p.r(U)p.r(G)p.r(U)p.r(A)p.r(G)p.d(T)p.d(T)}|RNA2{r(C)p.r(U)p.r(A)p.r(C)p.r(A)p.r(U)p.r(C)p.r(A)p.r(U)p.r(U)p.r(U)p.r(G)p.r(C)p.r(U)p.r(A)p.r(A)p.r(U)p.r(G)p.r(G)p.d(A)p.d(T)}$$$RNA1{StrandType:ss}|RNA2{StrandType:as}$ — higher, 77.9%
- RNA1{r(C)p.r(C)p.r(C)p.r(A)p.r(A)p.r(G)p.r(C)p.r(C)p.r(A)p.r(U)p.r(A)p.r(G)p.r(A)p.r(A)p.r(A)p.r(C)p.r(A)p.r(G)p.r(C)p.d(T)p.d(T)}|RNA2{r(G)p.r(C)p.r(U)p.r(G)p.r(U)p.r(U)p.r(U)p.r(C)p.r(U)p.r(A)p.r(U)p.r(G)p.r(G)p.r(C)p.r(U)p.r(U)p.r(G)p.r(G)p.r(G)p.d(C)p.d(T)}$$$RNA1{StrandType:ss}|RNA2{StrandType:as}$ — higher, 60.2%
- RNA1{r(C)p.r(C)p.r(U)p.r(A)p.r(A)p.r(U)p.r(G)p.r(U)p.r(A)p.r(G)p.r(A)p.r(C)p.r(A)p.r(A)p.r(G)p.r(U)p.r(U)p.r(G)p.r(G)p.d(T)p.d(T)}|RNA2{r(C)p.r(C)p.r(A)p.r(A)p.r(C)p.r(U)p.r(U)p.r(G)p.r(U)p.r(C)p.r(U)p.r(A)p.r(C)p.r(A)p.r(U)p.r(U)p.r(A)p.r(G)p.r(G)p.d(A)p.d(T)}$$$RNA1{StrandType:ss}|RNA2{StrandType:as}$ — higher, 69.4%
- RNA1{r(C)p.r(G)p.r(A)p.r(A)p.r(G)p.r(C)p.r(C)p.r(C)p.r(A)p.r(A)p.r(G)p.r(C)p.r(C)p.r(A)p.r(U)p.r(A)p.r(G)p.r(A)p.r(A)p.d(T)p.d(T)}|RNA2{r(U)p.r(U)p.r(C)p.r(U)p.r(A)p.r(U)p.r(G)p.r(G)p.r(C)p.r(U)p.r(U)p.r(G)p.r(G)p.r(G)p.r(C)p.r(U)p.r(U)p.r(C)p.r(G)p.d(T)p.d(T)}$$$RNA1{StrandType:ss}|RNA2{StrandType:as}$ — higher, 84.1%
- RNA1{r(C)p.r(G)p.r(U)p.r(U)p.r(U)p.r(C)p.r(A)p.r(U)p.r(G)p.r(A)p.r(C)p.r(C)p.r(A)p.r(A)p.r(A)p.r(A)p.r(U)p.r(U)p.r(U)p.d(T)p.d(T)}|RNA2{r(A)p.r(A)p.r(A)p.r(U)p.r(U)p.r(U)p.r(U)p.r(G)p.r(G)p.r(U)p.r(C)p.r(A)p.r(U)p.r(G)p.r(A)p.r(A)p.r(A)p.r(C)p.r(G)p.d(T)p.d(A)}$$$RNA1{StrandType:ss}|RNA2{StrandType:as}$ — higher, 100%
- RNA1{r(C)p.r(U)p.r(A)p.r(A)p.r(A)p.r(G)p.r(U)p.r(A)p.r(C)p.r(G)p.r(U)p.r(U)p.r(U)p.r(C)p.r(A)p.r(U)p.r(G)p.r(A)p.r(C)p.d(T)p.d(T)}|RNA2{r(G)p.r(U)p.r(C)p.r(A)p.r(U)p.r(G)p.r(A)p.r(A)p.r(A)p.r(C)p.r(G)p.r(U)p.r(A)p.r(C)p.r(U)p.r(U)p.r(U)p.r(A)p.r(G)p.d(G)p.d(G)}$$$RNA1{StrandType:ss}|RNA2{StrandType:as}$ — higher, 79.5%
- RNA1{r(C)p.r(U)p.r(A)p.r(G)p.r(A)p.r(U)p.r(A)p.r(U)p.r(U)p.r(U)p.r(U)p.r(G)p.r(A)p.r(A)p.r(A)p.r(G)p.r(A)p.r(U)p.r(A)p.d(T)p.d(T)}|RNA2{r(U)p.r(A)p.r(U)p.r(C)p.r(U)p.r(U)p.r(U)p.r(C)p.r(A)p.r(A)p.r(A)p.r(A)p.r(U)p.r(A)p.r(U)p.r(C)p.r(U)p.r(A)p.r(G)p.d(A)p.d(C)}$$$RNA1{StrandType:ss}|RNA2{StrandType:as}$ — higher, 85.6%
- RNA1{r(C)p.r(U)p.r(C)p.r(C)p.r(C)p.r(A)p.r(A)p.r(U)p.r(C)p.r(C)p.r(A)p.r(G)p.r(A)p.r(U)p.r(G)p.r(A)p.r(U)p.r(C)p.r(C)p.d(T)p.d(T)}|RNA2{r(G)p.r(G)p.r(A)p.r(U)p.r(C)p.r(A)p.r(U)p.r(C)p.r(U)p.r(G)p.r(G)p.r(A)p.r(U)p.r(U)p.r(G)p.r(G)p.r(G)p.r(A)p.r(G)p.d(C)p.d(A)}$$$RNA1{StrandType:ss}|RNA2{StrandType:as}$ — higher, 58.7%
- RNA1{r(C)p.r(U)p.r(U)p.r(G)p.r(A)p.r(A)p.r(C)p.r(U)p.r(A)p.r(U)p.r(U)p.r(C)p.r(C)p.r(U)p.r(U)p.r(C)p.r(C)p.r(A)p.r(G)p.d(T)p.d(T)}|RNA2{r(C)p.r(U)p.r(G)p.r(G)p.r(A)p.r(A)p.r(G)p.r(G)p.r(A)p.r(A)p.r(U)p.r(A)p.r(G)p.r(U)p.r(U)p.r(C)p.r(A)p.r(A)p.r(G)p.d(T)p.d(T)}$$$RNA1{StrandType:ss}|RNA2{StrandType:as}$ — higher, 84.8%
- RNA1{r(C)p.r(U)p.r(U)p.r(U)p.r(G)p.r(A)p.r(G)p.r(G)p.r(G)p.r(A)p.r(G)p.r(G)p.r(G)p.r(A)p.r(C)p.r(U)p.r(U)p.r(U)p.r(U)p.d(T)p.d(T)}|RNA2{r(A)p.r(A)p.r(A)p.r(A)p.r(G)p.r(U)p.r(C)p.r(C)p.r(C)p.r(U)p.r(C)p.r(C)p.r(C)p.r(U)p.r(C)p.r(A)p.r(A)p.r(A)p.r(G)p.d(G)p.d(G)}$$$RNA1{StrandType:ss}|RNA2{StrandType:as}$ — higher, 70.6%
- RNA1{r(G)p.r(A)p.r(A)p.r(A)p.r(C)p.r(A)p.r(G)p.r(C)p.r(U)p.r(A)p.r(G)p.r(A)p.r(G)p.r(C)p.r(A)p.r(U)p.r(G)p.r(G)p.r(A)p.d(T)p.d(T)}|RNA2{r(U)p.r(C)p.r(C)p.r(A)p.r(U)p.r(G)p.r(C)p.r(U)p.r(C)p.r(U)p.r(A)p.r(G)p.r(C)p.r(U)p.r(G)p.r(U)p.r(U)p.r(U)p.r(C)p.d(T)p.d(A)}$$$RNA1{StrandType:ss}|RNA2{StrandType:as}$ — higher, 100%
- RNA1{r(G)p.r(A)p.r(A)p.r(C)p.r(C)p.r(A)p.r(G)p.r(U)p.r(U)p.r(C)p.r(C)p.r(U)p.r(G)p.r(G)p.r(C)p.r(A)p.r(U)p.r(C)p.r(A)p.d(T)p.d(T)}|RNA2{r(U)p.r(G)p.r(A)p.r(U)p.r(G)p.r(C)p.r(C)p.r(A)p.r(G)p.r(G)p.r(A)p.r(A)p.r(C)p.r(U)p.r(G)p.r(G)p.r(U)p.r(U)p.r(C)p.d(T)p.d(G)}$$$RNA1{StrandType:ss}|RNA2{StrandType:as}$ — higher, 36%
- RNA1{r(G)p.r(A)p.r(A)p.r(C)p.r(U)p.r(A)p.r(U)p.r(U)p.r(C)p.r(C)p.r(U)p.r(U)p.r(C)p.r(C)p.r(A)p.r(G)p.r(A)p.r(A)p.r(G)p.d(T)p.d(T)}|RNA2{r(C)p.r(U)p.r(U)p.r(C)p.r(U)p.r(G)p.r(G)p.r(A)p.r(A)p.r(G)p.r(G)p.r(A)p.r(A)p.r(U)p.r(A)p.r(G)p.r(U)p.r(U)p.r(C)p.d(A)p.d(A)}$$$RNA1{StrandType:ss}|RNA2{StrandType:as}$ — higher, 87.5%
- RNA1{r(G)p.r(A)p.r(A)p.r(G)p.r(A)p.r(C)p.r(C)p.r(A)p.r(A)p.r(C)p.r(G)p.r(A)p.r(A)p.r(G)p.r(C)p.r(C)p.r(C)p.r(A)p.r(A)p.d(T)p.d(T)}|RNA2{r(U)p.r(U)p.r(G)p.r(G)p.r(G)p.r(C)p.r(U)p.r(U)p.r(C)p.r(G)p.r(U)p.r(U)p.r(G)p.r(G)p.r(U)p.r(C)p.r(U)p.r(U)p.r(C)p.d(C)p.d(A)}$$$RNA1{StrandType:ss}|RNA2{StrandType:as}$ — higher, 85.4%
- RNA1{r(G)p.r(A)p.r(A)p.r(G)p.r(C)p.r(C)p.r(C)p.r(A)p.r(A)p.r(G)p.r(C)p.r(C)p.r(A)p.r(U)p.r(A)p.r(G)p.r(A)p.r(A)p.r(A)p.d(T)p.d(T)}|RNA2{r(U)p.r(U)p.r(U)p.r(C)p.r(U)p.r(A)p.r(U)p.r(G)p.r(G)p.r(C)p.r(U)p.r(U)p.r(G)p.r(G)p.r(G)p.r(C)p.r(U)p.r(U)p.r(C)p.d(G)p.d(T)}$$$RNA1{StrandType:ss}|RNA2{StrandType:as}$ — higher, 90.3%
- RNA1{r(G)p.r(A)p.r(U)p.r(C)p.r(C)p.r(A)p.r(U)p.r(U)p.r(A)p.r(G)p.r(C)p.r(A)p.r(A)p.r(A)p.r(U)p.r(G)p.r(A)p.r(U)p.r(G)p.d(T)p.d(T)}|RNA2{r(C)p.r(A)p.r(U)p.r(C)p.r(A)p.r(U)p.r(U)p.r(U)p.r(G)p.r(C)p.r(U)p.r(A)p.r(A)p.r(U)p.r(G)p.r(G)p.r(A)p.r(U)p.r(C)p.d(A)p.d(T)}$$$RNA1{StrandType:ss}|RNA2{StrandType:as}$ — higher, 61.3%
- RNA1{r(G)p.r(C)p.r(A)p.r(A)p.r(A)p.r(U)p.r(G)p.r(A)p.r(U)p.r(G)p.r(U)p.r(A)p.r(G)p.r(C)p.r(G)p.r(G)p.r(A)p.r(G)p.r(C)p.d(T)p.d(T)}|RNA2{r(G)p.r(C)p.r(U)p.r(C)p.r(C)p.r(G)p.r(C)p.r(U)p.r(A)p.r(C)p.r(A)p.r(U)p.r(C)p.r(A)p.r(U)p.r(U)p.r(U)p.r(G)p.r(C)p.d(T)p.d(A)}$$$RNA1{StrandType:ss}|RNA2{StrandType:as}$ — higher, 49.8%
